Laboratory results: patent US20170226139A1, “CRYSTALLINE SALTS OF (Z)-O-OCTADEC-9-EN-1-YL O,O-DIHYDROGEN PHOSPHOROTHIOATE” (priority 2013, published 2017)
Read-outs that look alike come from different tables or passages of the source.

Tests used:
[1] = test system: S. typhimurium strains TA98, TA100, TA1535 and TA1537 and E. coli strain WP2uvrA; format: cell-based
Procedure: An Ames assay was conducted on Rx100.Lysine using S. typhimurium strains TA98, TA100, TA1535 and TA1537 and E. coli strain WP2uvrA. Two trials were performed. […] See Tables 38A and 38B, respectively. In the second trial, doses ranged from 0.160 to 16 μg/plate with some strains tested with activation and others without activation.

[2] = Rx100 salt screening (solid formation, XRPD wet/dry, filterability, exposure to RH > 90%); settings: for Filterability / Crystallinity / Polymorphic behavior: Rx100 salt formed with the named base; for Crystallinity / Polymorphic behavior: XRPD; for All solvents were evaporated to get a gel: label = base, nature/filterability of the solid; for ON PLATE: stage 2 round 2, Rx100 free acid + 1 eq base (label = base)
Procedure: We designed a complex and unconventional screening regime to screen for Rx100 crystalline salts. […] The screening regime is described as follows.
Rx100.FA in the form of a viscous liquid and eighteen counter ions were used as starting materials. These counter ions are listed and numbered in Table 4. The numbers will be used for grouping the resulting solids. The screening was performed in three stages.
Stage one (1) included screening 11 counter ions: sodium hydroxide, ammonium hydroxide, ethylenediamine, diethylamine, tromethamine (Tris), hydroxyethyl morpholine, benzathine, dimethylamino ethanol, L-Arginine, L-Lysine, L-Histidine. […] In stage 1, we performed three rounds of experiment.
In the first round of experiment, four (4) solvent systems, i.e., isopropyl alcohol (IPA), diethyl ether (DEE), IPA:water (a mixture at a volume ratio of 95:5) and tetrahydrofuran (THF), were used. Thus in this first round of screening, 44 individual base-acid reactions were conducted in 44 vials.
First, Rx100.FA and each of the bases were mixed in a vial. […] In each of the 44 vials, 211.1 μL of the prepared liquid, which was equivalent to about 35 mg of Rx100.FA, was first dispensed. Then, one equivalent (molar) of each of the 11 bases was dispensed in its corresponding vial. For example, the base sodium hydroxide was added to vials 1, 12, 23 and 34. Similarly, L-histidine was added to vials 11, 22, 33 and 44. Observations were recorded upon addition of the bases in to Rx100.FA.
Second, the solvent in each mixture was depleted. All vials containing the mixtures of Rx100.FA and each of the bases were left under moderate vacuum and nitrogen bleed at room temperature overnight to evaporate the solvent. The vials were then kept under full vacuum for about an hour to make sure the solvents (ethanol and water) are evaporated. Observations on formation of solid upon evaporation were recorded.
Third, solvents were added in each vial to induce solid formation. In each vial, a stir bar and one of the four selected solvents (each 5 volumes with respect to the Rx100.FA) were added. The vials were then capped. IPA was added to the first set of 11 vials (1-11), DEE added to the second set of 11 vials (12-22), IPA:water added to the third set of 11 vials (23-33), and THF added to the fourth set of 11 vials (34-44). The vials were left at room temperature while stirring for at least 5 hours. Observations were recorded.
The first set of XRPD analyses were recorded as “wet” samples. The solids were dried under vacuum for 1 hour and at room temperature followed by XRPD as “dry” sample. The dry solid was then exposed to relative humidity of more than 90% overnight followed by XRPD analysis. For XRPD naming, a number and a letter were used. The number refers to the counter ion and the letter refers to the chronological discovered XRPD pattern of that particular salt.
In the second round of experiment of stage one, another four (4) solvent systems, i.e., methanol (MeOH), tert-Butyl methyl ether (tBME), ethyl acetate and toluene, were used in the same 44 vials as used in the first round experiment. The solvents in all 44 vials from the first round were evaporated to dryness under vacuum and nitrogen bleed. The 4 new solvents were then added into the vials. Methanol was added to the first set of 11 vials (1-11), tBME added to the second set of 11 vials (12-22), Ethyl acetate added to the third set of 11 vials (23-33), and Toluene added to the fourth set of 11 vials (34-44). The same procedure as in the first round of experiment was followed for these new solvents and samples were taken for XRPD analysis.
In the third round of experiment, effect of base equivalence was assessed. […] After addition of the extra base, the previous solvent was evaporated and new solvents added.

[3] = test system: Cultured human peripheral lymphocytes cells; format: cell-based; settings: for Aberrant Cells Mean % −g: excluding gaps only; for Aberrant Cells Mean % +g: plus cells with gaps only
Procedure: Cultured human peripheral lymphocytes cells were incubated in vitro with Rx100.Lysine for 3 hours with and without S9 mix and for 24 hours without S9 mix. For Rx100.Lysine, concentrations ranging from 3.39 to 500 μg/mL were examined in both treatment conditions. Adjusting for purity, the concentration ranges were 3.06 to 452 μg/mL. […] This increase was just above the historical vehicle control range (0 to 2.0%) for 3 hour treatment without metabolic activation. Thus the response observed is a weak positive and of questionable biological significance cytotoxicity was present just below the acceptable limit of 50±5% for this assay.
Thus, Rx100.Lysine was considered negative for inducing chromosome aberrations, polyploidy and endoreduplication, in cultured human peripheral blood lymphocytes following a 3 hour treatment with and a 24 treatment without metabolic activation.

[4] = Single subcutaneous dose pharmacokinetics in irradiated and unirradiated mice; format: in vivo, C57BL/6 mice; settings: single SC dose 1 mg/kg
From the text: We performed a randomized, open-label, single-dose, four-arm, subcutaneously-administered, study of the pharmacokinetics of Rx100.Ammonia and Rx100.Lysine in irradiated and unirradiated C57BL/6 mice to evaluate the effect of salt form and irradiation on extravascular pharmacokinetics. The purpose of this study was to evaluate the pharmacokinetic parameters for two salt forms of Rx100 (Lysine and Ammonia) in healthy and PB irradiated (IR) mice when administered as a single dose. Each animal received a 1 mg/kg dose of Rx100.Lysine or Rx100.Ammonia. The animals receiving Rx100.Lysine or Rx100.Ammonia after irradiation were dosed 26±2 hours after irradiation and sampling times are relative to the time of test article dosing.
More specifically, randomized, acclimated, C57BL/6 mice were administered Rx100.Lysine or Rx100.Ammonia (10 mM L-histidine in sterile water for injection, or 1% ethanol, 2% propylene glycol in PBS, respectively) as a single dose as indicated in Table 25.
Blood was collected from 4 male and 4 female mice via cardiac puncture at pre-defined time points relative to test article dosing (0.5, 1, 2, 4, 6, 8, 12, 18, 24, and 48 hours) and collected into micro plasma separator vials (BD Microtainer®) containing lithium heparin. Blood was maintained on ice until centrifugation and subsequent processing. Blood draws were a terminal procedure. Plasma was frozen at −80° C. until submitted for bioanalysis. Sample collection was completed in September 2012. Samples were transferred to Covance in December 2013, and sample analysis was complete in the first quarter of 2014.
A total of 160 male and 160 female C57BL/6 10-12 week old mice were used in this study. Animals were randomized with weight stratification into treatment groups and given a second ear tag. Animals were acclimated for 16-19 days (See below Table 26). Prior to irradiation or dosing (in non-irradiated groups), animals were weighed a second time which was the basis of the animal dose delivered.
TLDs were used for dosimetry and confirmation of the delivered dose. TLDs were analyzed by MD Anderson and have a +/−5% accuracy. A total of 19 dosimeters were used with a mean measured dose of 15.33±0.166 Gy.
Analysis was performed using qualified and validated Phoenix® WinNonlin® Software. The final data provided was imported into Phoenix® WinNonlin®. All data presented in the tables and figures within the results section of this report were generated using the validated Phoenix® WinNonlin® Software.

[5] = 3-hour treatment without metabolic activation, positive control 1.00 μg/mL
[6] = 24-hour treatment without metabolic activation, positive control 0.300 μg/mL
[7] = + IR (irradiated mice), whole group (not split by gender), 1 mg/kg
[8] = healthy mice, whole group (not split by gender), 1 mg/kg
[9] = irradiated mice (15.6 Gy, dosed 26 ± 2 h after), F, 1 mg/kg
[10] = irradiated mice (15.6 Gy, dosed 26 ± 2 h after), M, 1 mg/kg
[11] = 3-hour treatment with metabolic activation, positive control 25.0 μg/mL

Nc1ccc2cc3ccccc3cc2c1 [2-aminoanthracene]
Revertant Colony Counts (Mean ± SD) ([1]; TA100, with metabolic activation, positive control 2.5 μg/plate): 2106 ± 68 ^N
Revertant Colony Counts (Mean ± SD) ([1]; TA1535, with metabolic activation, positive control 2.5 μg/plate): 205 ± 11 ^N
Revertant Colony Counts (Mean ± SD) ([1]; TA1537, with metabolic activation, positive control 2.5 μg/plate): 176 ± 19 ^N C
Revertant Colony Counts (Mean ± SD) ([1]; WP2uvrA, with metabolic activation, positive control 25.0 μg/plate): 634 ± 14 ^N

O=[N+]([O-])c1ccc2c(c1)Cc1ccccc1-2 [2-nitrofluorene]
Revertant Colony Counts (Mean ± SD) ([1]; Without Metabolic Activation, TA98, positive control 1.0 μg/plate): 329 ± 65 ^N

NCCCC[C@@H](N)C(=O)O [D-Lysine]
Filterability [2]: no
Crystallinity [2]: yes
Polymorphic behavior [2]: Polymorphic on XRPD
Solid upon evaporation (Y/N) ([2]; stage 3, 35 mg Rx100 free acid + base (label = base), 1.05 eq, L-lysine 2.00 eq): Gel
All solvents were evaporated to get a gel ([2]; stage 3, 1.05 eq, L-lysine 2.00 eq, solvent MeOH:Water [9:1]): Greasy.
All solvents were evaporated to get a gel ([2]; stage 3, 1.05 eq, L-lysine 2.00 eq, solvent MeOH): Greasy.

COc1ccc2nc3cc(Cl)ccc3c(NCCCNCCCl)c2c1 [ICR-191]
Revertant Colony Counts (Mean ± SD) ([1]; Without Metabolic Activation, TA1537, positive control 2.0 μg/plate): 562 ± 33 ^N

[K+].[OH-] [KOH]
ON PLATE ([2]; Ethyl acetate): Greasy
ON PLATE ([2]; IPA:water (1:1)): Pasty

CO[C@@]12[C@H](COC(N)=O)C3=C(C(=O)C(C)=C(N)C3=O)N1C[C@@H]1N[C@@H]12 [Mitomycin C]
Endoreduplicate Mean % [3, 5]: 0.0%
Polyploidy Mean % [3, 5]: 0.0%
Aberrant Cells Mean % −g [3, 5]: 57.0%
Aberrant Cells Mean % +g [3, 5]: 59.0%
Endoreduplicate Mean % [3, 6]: 0.0%
Polyploidy Mean % [3, 6]: 0.0%
Aberrant Cells Mean % −g [3, 6]: 58.0%
Aberrant Cells Mean % +g [3, 6]: 61.0%

[K+] [Potassium]
Filterability [2]: no
Crystallinity [2]: yes
Polymorphic behavior [2]: Polymorphic on XRPD

CCCCCCCC/C=C\CCCCCCCCOP(O)(O)=S [Rx100.Ammonia, (Z)—O-octadec-9-en-1-yl O,O-dihydrogen phosphorothioate]
CL ([4]; IR females): 10.5 mL/min/kg
AUC ([4]; IR females, 1 mg/kg): 1591 ng·h/mL
CL ([4]; IR males): 9.68 mL/min/kg
AUC ([4]; IR males, 1 mg/kg): 1721 ng·h/mL
half-life, change after irradiation ([4]; IR versus healthy mice): no change
CL ([4]; healthy females): 14.5 mL/min/kg
exposure (AUC) ([4]; healthy females, 1 mg/kg): 1152 ng·h/mL
CL ([4]; healthy males): 11 mL/min/kg
AUC ([4]; healthy males, 1 mg/kg): 1521 ng·h/mL
Tmax ([4]; healthy mice, 1 mg/kg): 30 to 60 min
Tmax ([4]; irradiated (IR) mice, 26±2 hours after 15.6 Gy, 1 mg/kg): 30 to 60 min
AUCINF_obs [4, 7]: 1644.99 ng·h/mL
CLss_F [4, 7]: 10.132 mL/min/kg
Cmax [4, 7]: 466.71 ng/mL
HL_Lambda_z [4, 7]: 1.37 h
Vz_F [4, 7]: 1.20034 L/kg
AUCINF_obs ([4]; healthy mice, F, 1 mg/kg): 1152.19 ng·h/mL
CLss_F ([4]; healthy mice, F, 1 mg/kg): 14.466 mL/min/kg
Vz_F ([4]; healthy mice, F, 1 mg/kg): 1.72837 L/kg
AUCINF_obs ([4]; healthy mice, M, 1 mg/kg): 1521.44 ng·h/mL
CLss_F ([4]; healthy mice, M, 1 mg/kg): 10.954 mL/min/kg
Vz_F ([4]; healthy mice, M, 1 mg/kg): 1.3407 L/kg
AUCINF_obs [4, 8]: 1342.00 ng·h/mL
CLss_F [4, 8]: 12.419 mL/min/kg
Cmax [4, 8]: 383.75 ng/mL
HL_Lambda_z [4, 8]: 1.78 h
Vz_F [4, 8]: 1.91818 L/kg
AUCINF_obs [4, 9]: 1591.05 ng·h/mL
CLss_F [4, 9]: 10.475 mL/min/kg
Vz_F [4, 9]: 1.22969 L/kg
AUCINF_obs [4, 10]: 1720.87 ng·h/mL
CLss_F [4, 10]: 9.685 mL/min/kg
Vz_F [4, 10]: 1.27697 L/kg

O=P1(N(CCCl)CCCl)NCCCO1 (centres unmarked) [cyclophosphamide, reference compound]
Cytotoxicity (% of Control) [3, 11]: 12 % of Control
Endoreduplicate Mean % [3, 11]: 0.0%
Polyploidy Mean % [3, 11]: 0.0%
Aberrant Cells Mean % −g [3, 11]: 58.0%
Aberrant Cells Mean % +g [3, 11]: 65.0%

[N-]=[N+]=[N-] [sodium azide]
Revertant Colony Counts (Mean ± SD) ([1]; Without Metabolic Activation, TA100, positive control 2.0 μg/plate): 969 ± 137 ^N
Revertant Colony Counts (Mean ± SD) ([1]; Without Metabolic Activation, TA1535, positive control 2.0 μg/plate): 863 ± 45 ^N
